Laboratory results: patent US20090012446A1, “DEVICES, SYSTEMS AND METHODS FOR RELEASE OF CHEMICAL AGENTS” (priority 2007, published 2009)

Columns and labels:
[1] = system: cultured hippocampal network; experiment: Evoked reverberatory activity of a cultured hippocampal network, patch clamping (polysynaptic current); assay type: cell-based, rat
Description: In several studies, the NMDA-type glutamate receptor antagonist AP-5 was, for example, incorporated as a dopant into PPy-coated gold “macro-electrodes” (having an area of 0.77-cm^2). In general, macro-electrodes or macroelectrodes have dimensions greater than 1 mm. A hippocampal neuronal culture and patch clamping were used to test the effectiveness of AP5 release. The drug was released from the electrode into normal recording solution by applying 30 cyclic voltage stimuli. This solution, when added to the neuronal culture, blocked evoked reverberatory activity in the network. […] 280 trials (at 30 s intervals) of evoked activity of a cultured hippocampal network under 5 different conditions were made in several studies as follows: 1. control (ctrl); 2. with 25 μM D-AP5 (AP5); 3. wash with recording solution that soaked the macroelectrode without voltage pulses (wash1); 4. with recording solution containing electrically released AP5 (AP5_r); 5. wash with normal recording solution (wash2). […] FIGS. 3A-3E sets forth example traces of polysynaptic current with one sample trace for each test condition. The scale bar in FIGS. 3A-E is 0.5 nA, 1 s.

[2] = system: neuronal cultures from E18 rat cortices; experiment: Extracellular recording of spontaneous spiking on MED64 microelectrodes coated with polypyrrole/CNQX after current stimulus; assay type: cell-based
Description: CNQX is an AMPA type glutamate receptor antagonist which inhibits excitatory neural transmission. We electrodeposited polypyrrole/CNQX on the microelectrodes of MED64 probes which were than plated with neuronal cultures from E18 rat cortices. When spontaneous activity was observed on an electrode bearing a CNQX/PPy film, a current stimulus (four 1 s-long pulses of −5 μA with 200 ms refractory periods in between) was applied to the electrode. Recordings were taken before and after the stimulus to observe any inhibition and recovery (during the stimulation it was not possible to record from the particular electrode given the pulse).
It was observed that neural spiking disappeared after applying the stimulus to an electrode bearing the PPy/CNQX. And at a later time point action potentials from the same cell (determined by examination of the waveforms in Offline Sorter and Wave Tracker, Plexon Inc.) reappeared on the electrode and the rate returned to baseline (determined by pre-stimulus control recordings). […] We determined, through repeated release, inhibition and recovery cycles, a time course of inhibition and recovery (see FIG. 5B) that appears consistent with the published effect of CNQX and with the theoretical estimate of CNQX diffusion in solution. In the studies of FIG. 5B, repeated CNQX release trials were performed to determine a time course of recovery. […]

[3] = system: low-density neuronal network; experiment: Patch clamp recording of monosynaptic currents in low-density neuronal network on PPy-modified MED64 after command signal; assay type: cell-based
Description: FIG. 6A is a photomicrograph image of a low-density neuronal network growing on a conducting polymer modified multielectrode array (MED64 available from Panasonic). The platinum coated electrodes are modified with the conducting polymer poly-pyrrole (PPy) containing either CNQX or chloride and phosphate ions (P) from PBS (blank release control). Release of the drug is affected by a “command signal,” which is the delivery of a voltage pulse (−2.5 V, 200 ms). Neuron “firing,” the generation of action potentials, is an all or none phenomenon. Synaptic currents are a continuous and graded phenomenon. For this reason synaptic currents recorded by patch electrodes better reflect the release and diffusion of the synaptic inhibitor CNQX, compared to action potentials recorded by the extracellular electrodes. To monitor the effect of release, individual cells in the network are patch clamped (wherein the patched cell is indicated by an arrow in FIG. 6A). The experimental protocol is described graphically in FIG. 6B. Neural stimulations (ns1,2, . . . ,8) are delivered through the substrate electrodes (but not the releasing electrode). The command signal starts 300 ms prior to ns2, and the currents are recorded by the patch electrode. […] FIG. 6C sets forth 8 columns corresponding to ns1 . . . 8, and 6 rows corresponding to individual trials. […]

Row | SMILES | reverberatory activity (polysynaptic current) ([1]; added AP5, 25 μM D-AP5 in recording solution) | reverberatory activity (polysynaptic current) ([1]; recording solution containing AP5 electrically released from PPy macroelectrode by 30 cyclic voltage stimuli (AP5_r)) | neuronal spiking on the releasing/recording electrode after release ([2]; four 1 s pulses of −5 μA, transient, with subsequent recovery to baseline) | spiking activity on neighboring electrodes after release ([2]; inter-electrode distance of 212 μm) | monosynaptic current following release (individual trial, FIG. 6C) ([3]; cell close to a CNQX containing electrode) | size of monosynaptic currents following command signal ([3]; voltage pulse −2.5 V, 200 ms to electrode with PPy film containing CNQX)
1 | N[C@H](CCCP(=O)(O)O)C(=O)O [AP5, 2-amino-5-phosphonopentanoic acid] | completely blocked | completely blocked | – | – | – | –
2 | N#Cc1cc2nc(O)c(O)nc2cc1[N+](=O)[O-] [CNQX, 6-cyano-7-nitroquinoxaline-2,3-dione] | – | – | suppression of neuronal spiking | did not affect spiking activity on neighboring electrodes | almost completely abolished | significant decrease
